# Where a SMILES comes first, the peptide text is derived from it. Bridges are numbered along the chain shown (N, C = ends).
# Key:
# E. coli 08040726 [1] = assay type: cell-based; conditions: 08040726, 18 h
# Procedure: (§1) A two-fold broth microdilution method described in our previous paper was used to determine the antimicrobial activities of parental and hybrid peptides. More than 30 strains including Gram-negative bacteria, Gram-positive bacteria and fungi were used in the current assay, in which the standard strains were stored in our lab and the clinical strains were collected from local hospitals. Briefly, bacteria were incubated in Mueller-Hinton broth (MH broth) at 37 °C to exponential phase and diluted to 10^6 CFU/mL. A serial dilution of peptide sample were prepared in 96-well microtiter plates (50 μL) and mixed with equal volume of microbial inoculums (50 μL). The plate was slowly shaken in the microbial incubator, and measured at A595 after incubation at 37 °C for 18 h. The minimal concentrations at which no microbial growth occurred were recorded as MIC (minimal inhibitory concentration) values. The traditional antibiotic ampicillin was used as positive control. The results are shown in an average of the MICs obtained from three independent experiments.
# trypsin = experiment: Trypsin inhibition assay (NBLAN hydrolysis, Dixon method); assay type: biochemical; conditions: 50 mM Tris–HCl pH 7.8, trypsin 0.1 mg/mL, 5 min pre-incubation at 37 °C, substrate NBLAN 48, 96, 192 μg/mL, 405 nm
# Procedure: The inhibition effect on the hydrolysis of synthetic chromogenic substrate by trypsin was assayed in 50 mM Tris–HCl, pH 7.8 buffer at room temperature. The trypsin of final concentration of 0.1 mg/mL and different amounts of the hybrid peptide (final concentrations ranging from 0 to 0.16 μg/mL) were pre-incubated for 5 min at 37 °C. N-α-Benzoyl-DL-arginine p-nitroanilide hydrochloride (NBLAN) was used as a substrate for trypsin. The reaction was initiated by the addition of NBLAN with a final concentration of 48, 96 and 192 μg/mL, respectively. The formation of yellow product, p-nitroaniline was monitored continuously at 405 nm[61]. The inhibition constant Ki of the hybrid peptides were determined according to the method of Dixon (1953)[62].
# [2] = system: Staphylococcus epidermidis; experiment: MIC, two-fold broth microdilution; assay type: cell-based; conditions: Gram-positive; two-fold broth microdilution, MH broth, 37 °C, 18 h; mean of three independent experiments in duplicates
# Outline: (§2)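 MH broth, 2-fold serial peptide dilution; inoculum 10^6 CFU/mL before equal-volume mixing. 37 °C, 18 h, gentle shaking, A595 read. MIC = no-growth endpoint, mean of 3 independent runs.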
# Vibrio Parahaemolyticus = experiment: MIC, two-fold broth microdilution; assay type: cell-based; conditions: Aquatic pathogenic bacteria; two-fold broth microdilution, 37 °C, 18 h; mean of three independent experiments in duplicates
# Outline: as §2
# E. Coli 08032813 = experiment: MIC, two-fold broth microdilution; assay type: cell-based; conditions: Gram-negative; two-fold broth microdilution, MH broth, 37 °C, 18 h; mean of three independent experiments in duplicates
# Outline: as §2
# E. coli 08040726 [3] = experiment: MIC, two-fold broth microdilution (second listing of the strain number); assay type: cell-based; conditions: Gram-negative, MH broth, 37 °C, 18 h, mean of three independent experiments in duplicates
# Procedure: as §1
# 08030209 = experiment: microbe, parasite or virus in culture; assay type: cell-based, Arcyria cinerea; conditions: Fungi; two-fold broth microdilution, 37 °C, 18 h; mean of three independent experiments in duplicates
# Procedure: as §1
# K. Pneumoniae 08031012 = experiment: microbe, parasite or virus in culture; assay type: cell-based; conditions: Gram-negative; two-fold broth microdilution, MH broth, 37 °C, 18 h; mean of three independent experiments in duplicates
# Procedure: as §1
# S. Maltophilia 090223 = experiment: microbe, parasite or virus in culture; assay type: cell-based; conditions: 090223, 18 h
# Procedure: as §1
# S. Aureus 08032706 = experiment: microbe, parasite or virus in culture; assay type: cell-based; conditions: Gram-positive; two-fold broth microdilution, MH broth, 37 °C, 18 h; mean of three independent experiments in duplicates
# Procedure: as §1
# [4] = system: Nocardia asteroides 08052412; experiment: microbe, parasite or virus in culture; assay type: cell-based; conditions: 18 h
# Procedure: as §1
# [5] = system: Enterococcus faecium 08052315; experiment: microbe, parasite or virus in culture; assay type: cell-based; conditions: 08052315, 18 h
# Procedure: as §1
# [6] = system: Escherichia coli ATCC25922; experiment: microbe, parasite or virus in culture; assay type: cell-based; conditions: ATCC25922, 18 h
# Procedure: as §1
# [7] = system: Bacillus subtilis 08042313; experiment: microbe, parasite or virus in culture; assay type: cell-based; conditions: 08042313, 18 h
# Procedure: as §1
# Vibrio cholerae = experiment: microbe, parasite or virus in culture; assay type: cell-based; conditions: 18 h
# Procedure: as §1
# Aeromonas sobria = experiment: microbe, parasite or virus in culture; assay type: cell-based; conditions: Aquatic pathogenic bacteria; two-fold broth microdilution, 37 °C, 18 h; mean of three independent experiments in duplicates
# Procedure: as §1
# S. Aureus 08032615 = experiment: microbe, parasite or virus in culture; assay type: cell-based; conditions: 08032615, 18 h
# Procedure: as §1
# Vibrio brasiiensis = experiment: microbe, parasite or virus in culture; assay type: cell-based; conditions: 18 h
# Procedure: as §1
# P. Aeruginosa 08021015 = experiment: microbe, parasite or virus in culture; assay type: cell-based; conditions: 08021015, 18 h
# Procedure: as §1
# Proteus mirabilis 1376 = experiment: microbe, parasite or virus in culture; assay type: cell-based; conditions: 1376, 18 h
# Procedure: as §1
# Candida glabrata 08A802 = experiment: microbe, parasite or virus in culture; assay type: cell-based; conditions: 08A802, 18 h
# Procedure: as §1
# Edwardsiella tarda = experiment: microbe, parasite or virus in culture; assay type: cell-based; conditions: 18 h
# Procedure: as §1
# S. Aureus 08032810 = experiment: microbe, parasite or virus in culture; assay type: cell-based; conditions: Gram-positive; two-fold broth microdilution, MH broth, 37 °C, 18 h; mean of three independent experiments in duplicates
# Procedure: as §1
# [8] = system: Candida albicans 08030102; experiment: microbe, parasite or virus in culture; assay type: cell-based; conditions: 08030102, 18 h
# Procedure: as §1
# Aeromonas veronii = experiment: microbe, parasite or virus in culture; assay type: cell-based; conditions: Aquatic pathogenic bacteria; two-fold broth microdilution, 37 °C, 18 h; mean of three independent experiments in duplicates
# Procedure: as §1
# Vibrio harveyi = experiment: microbe, parasite or virus in culture; assay type: cell-based; conditions: 18 h
# Procedure: as §1
# E. Coli 08032823 = experiment: microbe, parasite or virus in culture; assay type: cell-based; conditions: 08032823, 18 h
# Procedure: as §1
# K. Pneumoniae 08040202 = experiment: microbe, parasite or virus in culture; assay type: cell-based; conditions: Gram-negative; two-fold broth microdilution, MH broth, 37 °C, 18 h; mean of three independent experiments in duplicates
# Procedure: as §1
structure (smiles),measurement,setting,value
CC[C@H](C)[C@@H]1NC(=O)[C@H](CO)NC(=O)[C@H](CCCCN)NC(=O)[C@H]([C@@H](C)O)NC(=O)[C@H](Cc2c[nH]c3ccccc23)NC(=O)[C@@H](NC(=O)[C@H](Cc2ccccc2)NC(=O)[C@H](CCCCN)NC(=O)[C@H](CCCCN)NC(=O)[C@@H](NC(=O)[C@H](C)NC(=O)[C@H](CCCNC(=N)N)NC(=O)[C@H](CCCNC(=N)N)NC(=O)[C@@H](NC(=O)[C@H](CO)NC(=O)[C@H](CCCCN)NC(=O)[C@H](CC(C)C)NC(=O)[C@H](CC(C)C)NC(=O)[C@H](CCCNC(=N)N)NC(=O)[C@H](CCCCN)NC(=O)[C@H](Cc2ccccc2)NC(=O)[C@H](Cc2ccccc2)NC(=O)[C@@H](N)CCCCN)C(C)C)C(C)C)CSSC[C@@H](C(=O)O)NC(=O)[C@@H]2CCCN2C(=O)[C@H](CCCCN)NC(=O)[C@@H]2CCCN2C(=O)[C@@H]2CCCN2C1=O [H3TI] (H-KFFKRLLKSVRRAVKKFCWTKSIPPKPC-OH; disulfide 18-28),MIC E. coli 08040726,E. coli 08040726 [1],9.38 µg/mL
same,Ki,trypsin,5.5 µM
same,MIC Staphylococcus epidermidis,[2],— (no detectable activity in MIC assay in dose of 200 µg/mL or in trypsin inhibition assay at concentration of 160 μg/mL)
same,MIC Vibrio Parahaemolyticus,Vibrio Parahaemolyticus,4.69 µg/mL
same,MIC E. Coli 08032813,E. Coli 08032813,— (no detectable activity in MIC assay in dose of 200 µg/mL or in trypsin inhibition assay at concentration of 160 μg/mL)
same,MIC E. Coli 08040726 (second line with this strain number),E. coli 08040726 [3],— (no detectable activity in MIC assay in dose of 200 µg/mL or in trypsin inhibition assay at concentration of 160 μg/mL)
same,MIC Arcyria cinerea 08030209,08030209,— (no detectable activity in MIC assay in dose of 200 µg/mL or in trypsin inhibition assay at concentration of 160 μg/mL)
same,MIC K. Pneumoniae 08031012,K. Pneumoniae 08031012,— (no detectable activity in MIC assay in dose of 200 µg/mL or in trypsin inhibition assay at concentration of 160 μg/mL)
same,MIC S. Maltophilia 090223,S. Maltophilia 090223,18.75 µg/mL
same,MIC S. Aureus 08032706,S. Aureus 08032706,— (no detectable activity in MIC assay in dose of 200 µg/mL or in trypsin inhibition assay at concentration of 160 μg/mL)
same,MIC Nocardia asteroides 08052412,[4],18.75 µg/mL
same,MIC Enterococcus faecium 08052315,[5],9.38 µg/mL
same,MIC Escherichia coli ATCC25922,[6],37.5 µg/mL
same,MIC Bacillus subtilis 08042313,[7],9.38 µg/mL
same,MIC Vibrio cholerae,Vibrio cholerae,75 µg/mL
same,MIC Aeromonas sobria,Aeromonas sobria,— (no detectable activity in MIC assay in dose of 200 µg/mL or in trypsin inhibition assay at concentration of 160 μg/mL)
same,MIC S. Aureus 08032615,S. Aureus 08032615,37.5 µg/mL
same,MIC Vibrio brasiiensis,Vibrio brasiiensis,18.75 µg/mL
same,MIC P. Aeruginosa 08021015,P. Aeruginosa 08021015,37.5 µg/mL
same,MIC Proteus mirabilis 1376,Proteus mirabilis 1376,37.5 µg/mL
same,MIC Candida glabrata 08A802,Candida glabrata 08A802,4.69 µg/mL
same,MIC Edwardsiella tarda,Edwardsiella tarda,37.5 µg/mL
same,MIC S. Aureus 08032810,S. Aureus 08032810,— (no detectable activity in MIC assay in dose of 200 µg/mL or in trypsin inhibition assay at concentration of 160 μg/mL)
same,MIC Candida albicans 08030102,[8],4.69 µg/mL
same,MIC Aeromonas veronii,Aeromonas veronii,— (no detectable activity in MIC assay in dose of 200 µg/mL or in trypsin inhibition assay at concentration of 160 μg/mL)
same,MIC Vibrio harveyi,Vibrio harveyi,37.5 µg/mL
same,MIC E. Coli 08032823,E. Coli 08032823,37.5 µg/mL
same,MIC K. Pneumoniae 08040202,K. Pneumoniae 08040202,— (no detectable activity in MIC assay in dose of 200 µg/mL or in trypsin inhibition assay at concentration of 160 μg/mL)
